The target in one series is LdMetRS (Leishmania donovani, UniProt A0A3Q8IBX2). Nature of the series: LdMetRS biochemical enzyme assay (BIOMOL Green). The procedure: LdMetRS Assay Development and Kinetic Parameter Determinations
Activity of the LdMetRS enzyme was determined by monitoring levels of pyrophosphate released during the first step of the enzymatic reaction. The pyrophosphate formed was converted to two inorganic phosphate molecules using a pyrophosphatase enzyme and levels of the resulting phosphate molecules measured using the BIOMOL® Green reagent (Enzo Life Sciences) 2.
Following optimization of the assay buffer and determination of the enzyme linearity, 384-well plate based assays were carried out at room temperature in a 50 μl reaction volume containing 30 mM Tris, pH 8.0, 140 mM NaCl, 30 mM KCl, 40 mM MgCl2, 0.01% (v/v) Brij-35, 1 mM DTT, 1 U/ml pyrophosphatase, 50 nM recombinant LdMetRS, and varying concentrations of substrates. Michaelis constants for the ATP and methionine substrates were determined in an end point assay using the above buffer and enzyme conditions. Data were fitted to the modified Michaelis-Menten equations […]
Equation 1 (Hill equation): […]
Equation 2 (High substrate inhibition Michaelis-Menten equation): […]
LdMetRS Inhibitor Studies
All test compounds were solubilized in 100% DMSO to a concentration of 10 mM. To generate IC50 data for the compounds, assay ready plates containing 10-point inhibitor curves (half-log serial dilutions) were prepared using an Echo® 550 (Labcyte).
Following preparation of the inhibitor curves, assays were carried out at room temperature in clear, flat bottom, polystyrene, 384-well plates (Greiner). Each assay was performed in a 50 μl reaction volume containing 30 mM Tris; pH 8.0, 140 mM NaCl, 30 mM KCl, 40 mM MgCl2, 0.01% (v/v) Brij-35, 1 mM DTT, 1 U/ml pyrophosphatase, 50 nM recombinant LdMetRS, 50 µM methionine and 100 µM […]
Assays were performed by adding 25 μl buffer with enzyme to assay plates (with buffer only added to ‘no enzyme’ control wells) before the reaction was initiated with the addition of a 25 μl mix containing methionine, ATP and pyrophosphatase to all wells. Following a 120 min reaction at room temperature the assay was stopped with the addition of 50 μl BIOMOL® Green. The BIOMOL® Green signal was allowed to develop for 30 min before the absorbance of each well was read at 650 nm using an EnVision multilabel plate reader (PerkinElmer Life Sciences). All liquid dispensing steps were carried out using a Thermo Scientific WellMate dispenser (Matrix).
ActivityBase from IDBS (version 8.0.5.4) was used for data processing and analysis. All IC50 curve fitting was undertaken using ActivityBase XE (version 7.7.1) from IDBS. A four-parameter logistic dose-response curve was utilized with prefit used for all four parameters.
For DDD806905 Kiapp determinations, data fitting to the Morrison equation (equation 3) was carried out using GraFit v6.0 (Erithacus Software). It should be noted that data for fitting to the Morrison equation was normalised to a ‘100 µM DDD806905’ control rather than a ‘no enzyme’ control as […]
Equation 3 (Morrison equation): […]
vi = K1 −−([ ] [ ]ET+IT+Ki)−([ ] [ ]ET+IT+i)[ ] [ ]TIE4T
LdMetRS Mode of Inhibition Studies
To establish the mode of inhibition of DDD806905, data sets (generated using the BIOMOL® Green assay platform previously described) were collected by varying both the inhibitor and substrate concentrations. Using GraFit v6.0 (Erithacus Software) each data set was individually fitted to the Michaelis-Menten equation or the modified high substrate inhibition Michaelis-Menten equation described above (equation 2), and the resulting Lineweaver-Burk plots were examined for diagnostic […]
Data sets were then globally fitted to the appropriate model (with equations 4 and 5 used for […]
If more than one model appeared possible, then data were fitted to both and examined for significance using the F-test function in GraFit.

Series [1] in a line: pKa measurement (Sirius T3, UV-metric). The format is physicochemical. The procedure:
(§1) calculated, both in terms of pEC50 values. MIC (minimum inhibitory concentration) values are defined as the lowest concentration tested at which maximal inhibition is reached.
THP-1 cells were differentiated in 96-well plates with PMA as described above. Following differentiation the cells were treated for 30 min with dose-response curves of test compounds in presence of 100 nM LysoTracker Red DND-99 (Thermo Fisher) and 5 µg/ml Hoechst 33342. Next cells were washed 3 times with Hanks Buffered Saline Solution (Gibco) and imaged on a Perkin Elmer Operetta system. An image analysis algorithm to measure mean Lysotracker Red DND-99 intensity per cell was developed in Columbus. […]
To measure the pKa of DDD806905, a fast UV-metric method was performed using a Sirius T3 instrument (Sirius Analytical, U.K.). The calculation of the pKa was determined using the Sirius T3 refine software (Sirius Analytical, U.K.). In brief, the UV-metric pKa method is based on measuring pH during an acid-base titration and monitoring UV absorbance shift. […] The appearance of precipitate was monitored throughout the experiment by a turbidity sensing device. […] The pKas of DDD806905 was determined at the pH where there was maximal change in UV absorbance with respect to pH. […]
LogD7.4 values were quantified using a Sirius T3 instrument (Sirius Analytical, U.K.). […]

In a further series the test system is THP-1 lysosomes. Nature of the series: Lysosomotropism assay (LysoTracker Red competition). Format: cell-based, human. Conditions: PMA-differentiated THP-1 cells, 30 min. Here is the method: as §1
THP-1 cells were differentiated in 96-well plates with PMA as described above. Following differentiation the cells were treated for 30 min with dose-response curves of test compounds in presence of 100 nM LysoTracker Red DND-99 (Thermo Fisher) and 5 µg/ml Hoechst 33342. Next cells were washed 3 times with Hanks Buffered Saline Solution (Gibco) and imaged on a Perkin Elmer Operetta system. An image analysis algorithm to measure mean Lysotracker Red DND-99 intensity per cell was developed in Columbus. Mean Intensity was normalised using a no dye control (100% effect) and DMSO treated wells stained with Lysotracker Red DND-99 (0% effect control). Dose-response curves were fitted for the test compounds using a four-parameter equation (equation 5 above) and constrained to 0 and 100% where necessary.
To measure the pKa of DDD806905, a fast UV-metric method was performed using a Sirius T3 instrument (Sirius Analytical, U.K.). The calculation of the pKa was determined using the Sirius T3 refine software (Sirius Analytical, U.K.). In brief, the UV-metric pKa method is based on measuring pH during an acid-base titration and monitoring UV absorbance shift. The ionisation curve (Bjerrum curve) was then used to determine the pH where exactly 50 % of neutral and 50 % of ionised species was present. DDD806905 must be fully dissolved throughout the titration and so the titration is set to start at the pH where DDD806905 is in its fully ionised state. The appearance of precipitate was monitored throughout the experiment by a turbidity sensing device. […] The pKas of DDD806905 was determined at the pH where there was maximal change in UV absorbance with respect to pH. […]
LogD7.4 values were quantified using a Sirius T3 instrument (Sirius Analytical, U.K.). […] The instrument software calculated the pH of each data point using mass and charge balance equations and then fitted this theoretical data to the experimental data. […]

Sequence of LdMetRS (A0A3Q8IBX2 entry or part of it): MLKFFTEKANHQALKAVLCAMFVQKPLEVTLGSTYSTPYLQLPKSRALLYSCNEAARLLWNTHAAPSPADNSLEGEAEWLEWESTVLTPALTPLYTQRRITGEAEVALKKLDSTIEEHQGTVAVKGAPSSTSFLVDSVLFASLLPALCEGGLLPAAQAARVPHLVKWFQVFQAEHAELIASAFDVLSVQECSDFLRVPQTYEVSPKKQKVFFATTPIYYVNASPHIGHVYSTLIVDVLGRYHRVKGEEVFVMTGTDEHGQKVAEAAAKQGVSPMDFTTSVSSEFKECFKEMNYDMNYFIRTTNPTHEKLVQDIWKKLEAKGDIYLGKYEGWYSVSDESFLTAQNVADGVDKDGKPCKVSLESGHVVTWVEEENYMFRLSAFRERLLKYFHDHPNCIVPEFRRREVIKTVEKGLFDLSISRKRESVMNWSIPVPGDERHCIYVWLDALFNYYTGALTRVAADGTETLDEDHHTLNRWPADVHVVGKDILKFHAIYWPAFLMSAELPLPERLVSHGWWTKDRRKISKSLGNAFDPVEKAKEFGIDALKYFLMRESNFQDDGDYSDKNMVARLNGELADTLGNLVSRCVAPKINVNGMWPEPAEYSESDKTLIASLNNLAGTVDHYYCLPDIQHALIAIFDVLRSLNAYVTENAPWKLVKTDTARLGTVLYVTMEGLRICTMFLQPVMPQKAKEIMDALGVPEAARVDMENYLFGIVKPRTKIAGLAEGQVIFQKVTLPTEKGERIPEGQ

On to `Cl.Cl.O=c1nc(NCCCNCc2cc3c(Cl)cc(Cl)cc3[nH]2)[nH]c2ccccc12` [DDD806905, 2-((3-(((4,6-dichloro-1H-indol-2-yl)methyl)amino)propyl)amino)quinazolin-4(1H)-one dihydrochloride], for which the “mode of inhibition with respect to ATP” value at LdMetRS is on record as “mixed inhibition”. Moreover, on LdMetRS, the “mode of inhibition with respect to methionine” value is on record as “competitive inhibition”. Also, the Ki was 41 nM on LdMetRS (Ki app (Morrison equation), active enzyme concentration 39 nM as constant); 18 nM at LdMetRS (Ki, competitive inhibition with respect to methionine, global competitive inhibition model, Ki ± SE); 21 nM at LdMetRS (Ki, mixed inhibition with respect to ATP, mixed inhibition model, Ki ± SE). Further, the IC50 – broadly, the concentration that inhibits the measured activity by half – on LdMetRS (LdMetRS IC50 (μM), Table 1) was 0.09 µM; against LdMetRS (LdMetRS IC50, 50 nM LdMetRS, 50 μM methionine, 100 μM ATP), 0.094 µM; against LdMetRS (LdMetRS IC50, Fig S5A: methionine 50 µM, ATP 500 µM) it was 0.11 µM; against LdMetRS (LdMetRS IC50, Fig S5A: methionine 500 µM, ATP 500 µM), 0.433 µM; on LdMetRS (LdMetRS IC50, Fig S5B: ATP 50 µM, methionine 500 µM) it was 0.098 µM; at LdMetRS (LdMetRS IC50, Fig S5B: ATP 500 µM, methionine 500 µM), 0.38 µM. The half-inhibitory concentration (IC50) against LdMetRS (LdMetRS IC50, Fig S5C: methionine and ATP both 50 µM) stood at 0.037 µM; against LdMetRS (LdMetRS IC50, Fig S5C: methionine and ATP both 500 µM), 0.433 µM. Further, the “Ki′ (ATP mode of inhibition study)” value on LdMetRS (mixed inhibition model, ATP as variable substrate) was determined as 227 ± 23 nM. For the same molecule, the “compound present in un-ionized state” value is about 0% in series [1] (pH 5.6) and 0.01% in series [1] (pH 7.3). Besides, the “competition with lysotracker red accumulation in THP-1 lysosomes” value with THP-1 lysosomes is on record as “did compete with lysotracker red accumulation”.
